Measured values taken from PubChem BioAssay AID608 (Sanford-Burnham Center for Chemical Genomics, 2007).
Activity calls are given as the source filed them. How the calls were made is not given here.

biological target: Peptidyl-prolyl cis-trans isomerase FKBP1A (Homo sapiens) (UniProt P62942); test: FKBP12 binders, biophysical, NMR detection (AID 608); settings: NMR binding, purified FKBP12
Sequence (P62942 whole entry, looked up): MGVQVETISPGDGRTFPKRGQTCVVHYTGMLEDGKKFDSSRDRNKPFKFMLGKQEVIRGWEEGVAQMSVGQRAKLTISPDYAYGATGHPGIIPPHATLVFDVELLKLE

| Structure (SMILES) | Kd |
| --- | --- |
| O=c1[nH]c(=O)n(-c2ccc(F)cc2)c(O)c1/C=C1/C=CC=N1 | > 4 mM (inactive) |
| NC1=NC(=O)/C(=C\c2cccc(C(=O)O)c2)S1 | > 4 mM (inactive) |
| O=C(O)c1ccc(CN2CCOCC2)cc1 | > 4 mM (inactive) |
| CC(=O)N1CCC(NC2CCCCCC2)CC1 | > 4 mM (inactive) |
| COc1ccc(-c2cc(=O)c3ccccc3o2)cc1OC | > 4 mM (inactive) |
| C[n+]1ccn(C/C(N)=N/O)c1 | > 4 mM (inactive) |
| NS(=O)(=O)c1ccc(N=Cc2ccc[nH]2)cc1 | > 4 mM (inactive) |
| OC(c1ccccc1)c1ccccn1 (configuration not stated) | > 4 mM (inactive) |
| Cc1ccc(N2NC(=O)CC2=O)cc1C | > 4 mM (inactive) |
| O=C1CCCc2c(O)cccc21 | > 4 mM (inactive) |
| CCOc1nc(C)ccc1-c1noc(-c2ccncc2)n1 | > 4 mM (inactive) |
| CCC1(CC)C(=O)N=C(N)NC1=O | > 4 mM (inactive) |
| Cc1cc(C(=O)N2CCCCCC2)cs1 | > 4 mM (inactive) |
| NS(=O)(=O)c1ccc(NC(=O)C(F)(F)F)cc1 | > 4 mM (inactive) |
| CC(=O)c1cccc(NC(=O)C=C(C)C)c1 | > 4 mM (inactive) |
| O=C(O)c1csc(-c2cccs2)n1 | > 4 mM (inactive) |
| CC(C)=CCOc1c2occc2cc2ccc(=O)oc12 | > 4 mM (inactive) |
| Cc1nc2ccc(C(=O)N3CCSCC3)cc2s1 | > 4 mM (inactive) |
| COc1cccc2c1CCC1=CC(=O)CC[C@@]12C | > 4 mM (inactive) |
| COc1c2ccoc2c(OC)c2oc(=O)ccc12 | > 4 mM (inactive) |
| Cc1ccc(C)n1-c1ccc(C(=O)N2CCOCC2)cc1 | > 4 mM (inactive) |
| OC1CCCN(Cc2ccccc2)C1 (configuration not stated) | > 4 mM (inactive) |
| O=C(c1cc(Cl)cc(Cl)c1)N1CCOCC1 | > 4 mM (inactive) |
| c1ccc2sc(CCc3nc4ccccc4s3)nc2c1 | inactive |

| Structure (SMILES) | Kd |
| --- | --- |
| CSc1nn(-c2ccccc2)c(N)c1C#N | > 4 mM (inactive) |
| CC(=O)Nc1nnc(-c2ccc(Cn3c(-c4cscn4)nc4ccccc43)cc2)s1 | inactive |
| CCNC(=S)N1CCCC(C(N)=O)C1 (configuration not stated) | > 4 mM (inactive) |
| Cc1[nH]c(=O)[nH]c(=O)c1N1CCOCC1 | > 4 mM (inactive) |
| O=C(O)C1COc2ccccc2C1 (configuration not stated) | > 4 mM (inactive) |
| c1ccc2c(c1)nc(-c1cscn1)n2Cc1ccc(-c2nn[nH]n2)cc1 | inactive |
| NCc1cccc(-n2cccc2)c1 | > 4 mM (inactive) |
| NC(=O)c1ccc(N2C(=O)CCC2=O)cc1Cl | > 4 mM (inactive) |
| O=C1NCCCC1C(=O)N/N=C/c1ccccc1 (configuration not stated) | > 4 mM (inactive) |
| OCc1cccc2nonc12 | > 4 mM (inactive) |
| COc1cccc(C(=O)N2CCOCC2)c1 | > 4 mM (inactive) |
| O=C(O)c1[nH]nc2c1COc1ccccc1-2 | > 4 mM (inactive) |
| O=c1ccc2c([nH]1)CCCC2 | > 4 mM (inactive) |
| O=C(O)Cn1nnn(-c2ccccc2)c1=S | > 4 mM (inactive) |
| C/C(O)=c1/sc2cc(C)nc(=N)n2c1=O | > 4 mM (inactive) |
| OCCNC(=S)Nc1ccc(F)cc1 | > 4 mM (inactive) |
| c1ccc2c(NC3=NCCS3)cccc2c1 | > 4 mM (inactive) |
| CC(C)(O)[C@@H]1Cc2cc3ccc(=O)oc3cc2O1 | > 4 mM (inactive) |
| Cc1ccc(C(C)C)cc2c(C)ccc1-2 | > 4 mM (inactive) |
| CC1CC[C@@]2(OC1)O[C@H]1CC3C4CC[C@@H]5C[C@@H](O)CC[C@]5(C)C4CC[C@]3(C)[C@H]1[C@@H]2C (some centres not stated) | > 4 mM (inactive) |
| O=C(O)c1ccc(-n2cncn2)cc1 | > 4 mM (inactive) |
| Cc1cc(O)cc(O)c1C(=O)O | > 4 mM (inactive) |
| COC[C@]12CN(C=O)C3[C@@H]4[C@H](OC)C1[C@]3(C1CC3(O)C(OC)C(O)C4(OC(C)=O)C1C3OC(=O)c1ccccc1)[C@@H](OC)C[C@H]2O (some centres not stated) | > 4 mM (inactive) |
| Cn1nc(C(=O)N2CCOCC2)c2ccccc2c1=O | > 4 mM (inactive) |

| Structure (SMILES) | Kd |
| --- | --- |
| CCN(CC)S(=O)(=O)c1cccc2nsnc12 | > 4 mM (inactive) |
| C/C=C(\C)c1nnc(NC(=O)C(C)C)s1 | > 4 mM (inactive) |
| Cc1ccc(SCc2cc(=O)n3[nH]cnc3n2)cc1 | > 4 mM (inactive) |
| NC(=O)c1cccc2c(=O)oc3ccccc3c12 | > 4 mM (inactive) |
| Cc1c(C)c2c(c(C)c1O)CCC(C)(CCCC(C)CCCC(C)CCCC(C)C)O2 (configuration not stated) | > 4 mM (inactive) |
| OCc1ccc2occc2c1 | > 4 mM (inactive) |
| CCn1ncc(Cl)c1C(=O)Nc1ccncc1 | > 4 mM (inactive) |
| CC1CC[C@]2(NC1)O[C@H]1CC3C4CC[C@H]5C[C@@H](O)CC[C@]5(C)C4CC[C@]3(C)[C@H]1[C@@H]2C (some centres not stated) | > 4 mM (inactive) |
| O=C1NC(=S)N/C1=C/c1ccc(O)c(Cl)c1 | > 4 mM (inactive) |
| O=C(Nc1nnc(-c2ccccc2Cl)o1)c1ccco1 | > 4 mM (inactive) |
| Nc1ccc(S(=O)(=O)N2CCOCC2)cc1 | > 4 mM (inactive) |
| O=C(O)c1ccccc1SCC(=O)N1CCOCC1 | > 4 mM (inactive) |
| Cc1ccccc1NC(=O)C1CCC(=O)N1 (configuration not stated) | > 4 mM (inactive) |
| c1ccc(-c2nc3ccccc3nc2-c2ccccn2)nc1 | > 4 mM (inactive) |
| O=c1oc2c(O)c(O)cc3c(=O)oc4c(O)c(O)cc1c4c23 | > 4 mM (inactive) |
| CC[C@@H]1[C@@H](O)N2C3C[C@H]1C1C(O)[C@]4(C[C@@H]12)c1ccccc1N(C)[C@@H]34 (some centres not stated) | > 4 mM (inactive) |
| CN(C)S(=O)(=O)c1ccc(NC=O)cc1 | > 4 mM (inactive) |
| NC(=O)CSc1ccc2nnc(-c3cccs3)n2n1 | > 4 mM (inactive) |
| O=C(O)c1csc2ccccc12 | > 4 mM (inactive) |
| CC1(C)C=CC(=O)[C@@]2(C)C1CC(=O)[C@]1(C)C2CC[C@@]2(C)[C@H](c3ccoc3)OC(=O)C3OC321 (some centres not stated) | > 4 mM (inactive) |
| COc1ccc(-c2c(C)n([O-])c(C)c(C)[n+]2=O)cc1 | > 4 mM (inactive) |
| Nc1nc2c3ccccc3nc(Cc3ccccc3)n2n1 | > 4 mM (inactive) |
| CN1CCC(NC(=O)C2CCCO2)CC1 (configuration not stated) | > 4 mM (inactive) |
| O=C(O)Cc1csc(-c2ccccc2)n1 | > 4 mM (inactive) |

| Structure (SMILES) | Kd |
| --- | --- |
| O=C(c1sc2cc(Cl)ccc2c1Cl)N1CCOCC1 | inactive |
| Cc1ccc(Nc2nc(N)nc(CC#N)n2)cc1 | > 4 mM (inactive) |
| C[C@@H]1CC[C@H]2[C@@H](C)C(=O)O[C@@H]3OC4(C)CC[C@@H]1[C@]32OO4 | > 4 mM (inactive) |
| O=C1NC(=S)N/C1=C\c1cccc([N+](=O)[O-])c1 | > 4 mM (inactive) |
| Cc1cc(C)cc(C(=O)n2cnnc2N)c1 | > 4 mM (inactive) |
| CC1(C)CC[C@]2(C)CC[C@]3(C)C(=CCC4[C@@]5(C)CC[C@H](O)C(C)(C)C5CC[C@]43C)C2C1 (some centres not stated) | > 4 mM (inactive) |
| O=C(Nc1nncs1)Oc1ccccc1 | > 4 mM (inactive) |
| COC(=O)c1[nH]c2ccccc2c1C(=O)OC | > 4 mM (inactive) |
| O=C1c2ccccc2-c2ncnc3cccc1c23 | > 4 mM (inactive) |
| CCC(=O)Nc1ccccc1NC(C)=O | > 4 mM (inactive) |
| CCC1(CC)C(=O)NC(=O)N=C1N | > 4 mM (inactive) |
| O=C1CSC(=Nc2cccc(C(=O)O)c2)N1 | > 4 mM (inactive) |
| CC12CNCC(C)(CNC1)C2O (configuration not stated) | > 4 mM (inactive) |
| CC(NC(=O)c1ccco1)c1ccc2c(c1)OCCO2 (configuration not stated) | > 4 mM (inactive) |
| NC(=O)CC(=O)NC12CC3CC(CC(C3)C1)C2 | > 4 mM (inactive) |
| COC(=O)C1COCCN1C(=O)CSc1ccc(C(C)C)cc1 (configuration not stated) | 0.0003 mM |
| O=c1[nH]c2ccc(S(=O)(=O)NC3CC3)cc2[nH]1 | > 4 mM (inactive) |
| O=C(O)c1cc2ccccc2s1 | > 4 mM (inactive) |
| O=C1CSC(=NC(=O)c2ccccc2)N1 | > 4 mM (inactive) |
| Nc1ccc2c(c1)S(=O)(=O)C=C2 | > 4 mM (inactive) |
| CSc1ccccc1NC(=O)c1cnccn1 | > 4 mM (inactive) |
| NC1=NC(=O)/C(=C/c2ccc(O)c(Cl)c2)S1 | > 4 mM (inactive) |
| Nc1ccc(CN2CCS(=O)(=O)CC2)cc1 | > 4 mM (inactive) |
| Cc1ccc(C(=O)N2CC(=O)NC(=O)C2)cc1 | > 4 mM (inactive) |

| Structure (SMILES) | Kd |
| --- | --- |
| CN1CCN(c2ccc(CN)cc2)CC1 | > 4 mM (inactive) |
| NC(=O)Nc1cccc(C(F)(F)F)c1 | > 4 mM (inactive) |
| Oc1ccc2nonc2c1 | > 4 mM (inactive) |
| COC(=O)CSc1nnc(-c2ccc(C(=O)O)cc2)o1 | > 4 mM (inactive) |
| COC(=O)CC1C(C)(C)C(OC(C)=O)[C@@H]2[C@@H](OC(C)=O)[C@]34O[C@@]2(O)[C@]1(C)C3CC[C@]1(C)C4=CC(=O)O[C@H]1c1ccoc1 (some centres not stated) | > 4 mM (inactive) |
| NC1CCN(Cc2ccccc2)CC1 | > 4 mM (inactive) |
| CCC(CCC(C)[C@H]1CCC2C3CC=C4C[C@@H](O)CC[C@]4(C)C3CC[C@@]21C)C(C)C (some centres not stated) | > 4 mM (inactive) |
| CC(=O)OC1CC[C@@]2(C)C(CCC3C2CC[C@]2(C)C(C4=CC(=O)OC4)C(OC(C)=O)CC32O)C1 (some centres not stated) | > 4 mM (inactive) |
| CCOC(=O)c1sc(SC)c2c1CCCC2O (configuration not stated) | > 4 mM (inactive) |
| CCCCNS(=O)(=O)c1ccc(OCC(=O)N2CCOCC2)cc1 | inactive |
| Cc1ccc(CN2CCN(C(=O)C3CCC3)CC2)cc1 | > 4 mM (inactive) |
| O=C(O)c1cccc(N2C(=O)C3CC=CCC3C2=O)c1 (configuration not stated) | > 4 mM (inactive) |
| Cc1noc(C)c1C(=O)Nc1ccccn1 | > 4 mM (inactive) |
| COC(=O)[C@]1(C)CC[C@]2(C)CC[C@]3(C)C4=CC=C5C(=CC(=O)C(O)=C5C)[C@]4(C)CC[C@@]3(C)[C@@H]2C1 | > 4 mM (inactive) |
| S=c1[nH]ncn1-c1ccccc1 | > 4 mM (inactive) |
| CN(C)C(=S)Nc1ccccc1N1CCOCC1 | > 4 mM (inactive) |
| Cn1c(=O)c2[nH]cnc2n(C)c1=O | > 4 mM (inactive) |
| CCOC(=O)Cn1cnc2c1c(=O)[nH]c(=O)n2C | > 4 mM (inactive) |
| CCOC(=O)Cn1cnc2sc3c(c2c1=O)CCC3 | > 4 mM (inactive) |
| O=C1CS/C(=N/N=C2CCCC2)N1 | > 4 mM (inactive) |
| Cc1ccc(NC(=O)C(=O)Nc2ccccn2)cc1 | > 4 mM (inactive) |
